Measured values published in ChEMBL document CHEMBL5150008, “Fragment-Guided Discovery of Pyrazole Carboxylic Acid Inhibitors of the Kelch-like ECH-Associated Protein 1: Nuclear Factor Erythroid 2 Related Factor 2 (KEAP1:NRF2) Protein-Protein Interaction” (J Med Chem, 2021).
pIC50: −log10 of the molar value.

Columns and labels:
Keap1/Nrf2 [1] = target: Keap1/Nrf2 (Homo sapiens, UniProt Q14145); experiment: (§1) Inhibition of 5'-TAMRA tagged NRF2 (unknown origin)/human recombinant N-terminal Avi tagged KEAP-1 (321 to 609 residues) expressed in Baculovirus system infected in Sf9 cells protein-protein interaction by fluorescence polarisation assay; conditions: for pIC50: read-out: IC50; for IC50: read-out: pIC50 (converted)
Keap1/Nrf2 [2] = target: T1, Keap1/Nrf2 (Homo sapiens, UniProt Q16236+Q14145); experiment: Inhibition of 5'-TAMRA tagged NRF2 (unknown origin)/human recombinant N-terminal Avi tagged KEAP-1 (321 to 609 residues) expressed in Baculovirus system infected in Sf9 cells protein-protein interaction at 0.03 uM by fluorescence polarisation assay relative to control
[3] = Lipophilicity, logD of compound at pH 2 to 10.5 by reversed-phase HPLC; format: physicochemical
[4] = Permeability in artificial phospholipid membrane by AMPA based HPLC/UV analysis; format: ADME, cell membranes; conditions: not told; read-out: permeability
Keap1/Nrf2 [5] = target: T1, Keap1/Nrf2; experiment: Inhibition of 5'-TAMRA tagged NRF2 (unknown origin)/human recombinant N-terminal Avi tagged KEAP-1 (321 to 609 residues) expressed in Baculovirus system infected in Sf9 cells protein-protein interaction at 0.015 uM by fluorescence polarisation assay relative to control
Target sequence in this assay (Q14145 whole entry, looked up, the tested form may be a part): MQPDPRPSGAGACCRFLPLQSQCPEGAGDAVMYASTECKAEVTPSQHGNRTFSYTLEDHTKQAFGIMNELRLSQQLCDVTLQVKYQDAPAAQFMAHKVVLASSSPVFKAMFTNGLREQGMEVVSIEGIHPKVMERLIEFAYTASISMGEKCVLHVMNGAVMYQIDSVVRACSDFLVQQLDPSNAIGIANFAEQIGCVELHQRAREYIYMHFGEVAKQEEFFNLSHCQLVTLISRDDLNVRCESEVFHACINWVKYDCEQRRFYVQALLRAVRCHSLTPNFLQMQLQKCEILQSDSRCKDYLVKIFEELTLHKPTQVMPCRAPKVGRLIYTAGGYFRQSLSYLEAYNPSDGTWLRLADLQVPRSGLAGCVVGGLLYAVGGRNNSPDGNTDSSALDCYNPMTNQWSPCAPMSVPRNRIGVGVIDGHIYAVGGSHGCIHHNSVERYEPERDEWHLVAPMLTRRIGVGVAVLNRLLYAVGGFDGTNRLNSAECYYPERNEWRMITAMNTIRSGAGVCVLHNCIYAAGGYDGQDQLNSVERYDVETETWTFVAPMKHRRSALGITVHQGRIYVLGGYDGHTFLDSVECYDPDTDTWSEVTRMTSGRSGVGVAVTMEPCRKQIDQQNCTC
Target sequence in this assay (Q16236 whole entry, looked up, the tested form may be a part): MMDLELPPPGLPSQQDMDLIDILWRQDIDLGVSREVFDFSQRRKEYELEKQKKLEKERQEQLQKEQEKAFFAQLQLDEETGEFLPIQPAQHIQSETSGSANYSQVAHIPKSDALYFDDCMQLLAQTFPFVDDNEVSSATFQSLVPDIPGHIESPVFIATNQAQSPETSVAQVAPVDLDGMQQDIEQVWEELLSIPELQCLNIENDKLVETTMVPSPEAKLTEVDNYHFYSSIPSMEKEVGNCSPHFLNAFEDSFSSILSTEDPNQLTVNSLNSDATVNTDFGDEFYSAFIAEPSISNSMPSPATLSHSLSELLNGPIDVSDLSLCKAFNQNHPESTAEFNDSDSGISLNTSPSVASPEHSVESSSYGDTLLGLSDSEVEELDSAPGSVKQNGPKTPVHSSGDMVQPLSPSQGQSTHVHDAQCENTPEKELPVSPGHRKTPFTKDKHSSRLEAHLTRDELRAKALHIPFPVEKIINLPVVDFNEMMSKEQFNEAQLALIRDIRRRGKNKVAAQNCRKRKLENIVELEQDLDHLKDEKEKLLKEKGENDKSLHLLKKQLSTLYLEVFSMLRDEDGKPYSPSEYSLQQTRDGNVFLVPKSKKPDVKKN

Keap1/Nrf2 [6] = target: T1, Keap1/Nrf2; experiment: as §1
Target sequence in this assay (Q14145 whole entry, looked up, the tested form may be a part): as the sequence (Q14145 whole entry, looked up, the tested form may be a part) above
Target sequence in this assay (Q16236 whole entry, looked up, the tested form may be a part): as the sequence (Q16236 whole entry, looked up, the tested form may be a part) above

Keap1/Nrf2 [7] = target: T1, Keap1/Nrf2; experiment: Inhibition of 5'-TAMRA tagged NRF2 (unknown origin)/human recombinant N-terminal Avi tagged KEAP-1 (321 to 609 residues) expressed in Baculovirus system infected in Sf9 cells protein-protein interaction at 0.1 uM by fluorescence polarisation assay relative to control
Target sequence in this assay (Q14145 whole entry, looked up, the tested form may be a part): as the sequence (Q14145 whole entry, looked up, the tested form may be a part) above
Target sequence in this assay (Q16236 whole entry, looked up, the tested form may be a part): as the sequence (Q16236 whole entry, looked up, the tested form may be a part) above

Keap1/Nrf2 [8] = target: T1, Keap1/Nrf2; experiment: Inhibition of 5'-TAMRA tagged NRF2 (unknown origin)/human recombinant N-terminal Avi tagged KEAP-1 (321 to 609 residues) expressed in Baculovirus system infected in Sf9 cells protein-protein interaction at 0.05 uM by fluorescence polarisation assay relative to control
Target sequence in this assay (Q14145 whole entry, looked up, the tested form may be a part): as the sequence (Q14145 whole entry, looked up, the tested form may be a part) above
Target sequence in this assay (Q16236 whole entry, looked up, the tested form may be a part): as the sequence (Q16236 whole entry, looked up, the tested form may be a part) above

Chain of Keap1/Nrf2 (Homo sapiens, UniProt Q14145) (Q16236 whole entry, the tested form may be a part): as the sequence (Q16236 whole entry, looked up, the tested form may be a part) above
Chain of Keap1/Nrf2 (Homo sapiens, UniProt Q14145) (Q14145 whole entry, the tested form may be a part): as the sequence (Q14145 whole entry, looked up, the tested form may be a part) above

Row | Structure (SMILES) | pIC50 (Keap1/Nrf2 [1]) | chromatographic logD [3] | Papp [4] [×10⁻⁶ cm/s] | further results
1 | O=C(O)c1cnn(-c2ccccn2)c1C(F)(F)F | < 3.00 | – | – | –
2 | O=C(O)c1cnn(-c2cccc(-c3cccc(C(=O)N(CC4CC4)CC4CC4)c3F)c2)c1C1CC1 | – | 3.5 | 1.6 | inhibition (Keap1/Nrf2 [2]): 46%
3 | CCC[C@@H]1CCCCN1C(=O)c1cccc(-c2cccc(-n3ncc(C(=O)O)c3C3CC3)c2)c1F | – | 3.5 | 2.7 | inhibition (Keap1/Nrf2 [5]): 52%
4 | O=C(O)c1cnn(-c2cccc([C@@H]3CCC[C@H](C(=O)N4CCCCC4)C3)c2)c1C1CC1 (racemic) | 6.52 | 2.7 | < 0.3 | –
5 | CCCC1CCCCN1C(=O)C1CCCC(c2cccc(-n3ncc(C(=O)O)c3C3CC3)c2)C1 (mixture of isomers) | 6.64 | 4.1 | 1.1 | –
6 | O=C(O)c1cnn(-c2cccc(-c3cccc(C(=O)N4CCCCC4)c3F)c2)c1C1CC1 | 6.92 | 2.3 | < 0.3 | IC50 (Keap1/Nrf2 [1]): < 1 µM
7 | CN(C)C(=O)[C@H]1CCC[C@@H](c2cccc(-n3ncc(C(=O)O)c3C3CC3)c2)C1 (racemic) | 6.62 | 1.7 | < 0.3 | IC50 (Keap1/Nrf2 [1]): < 1 µM
8 | CCCCC1CCCN1C(=O)C1CCCC(c2cccc(-n3ncc(C(=O)O)c3C3CC3)c2)C1 (mixture of isomers) | – | 4.4 | 2.7 | inhibition (Keap1/Nrf2 [2]): 64%
9 | O=C(O)c1cnn(-c2cccc(-c3cccc(C(=O)N4CCCC5(CCCC5)C4)c3F)c2)c1C1CC1 | – | 3.7 | 1.2 | inhibition (Keap1/Nrf2 [5]): 50%
10 | CC(C)Oc1cccc(-c2cccc(-n3ncc(C(=O)O)c3C(F)(F)F)n2)c1 | 5.07 | – | – | –
11 | CCC[C@H]1CCCCN1C(=O)c1cccc(-c2cccc(-n3ncc(C(=O)O)c3C3CC3)c2)c1F | 7.22 | 3.5 | 6.3 | –
12 | O=C(O)c1cnn(-c2cccc(NS(=O)(=O)c3ccccc3)c2)c1C(F)(F)F | 5.34 | – | – | –
13 | CCCC[C@@H]1CCCN1C(=O)[C@H]1CCC[C@@H](c2cccc(-n3ncc(C(=O)O)c3C3CC3)c2)C1 | – | 4.3 | 1.6 | inhibition (Keap1/Nrf2 [5]): 81%
14 | CCCC1COCCN1C(=O)c1cccc(-c2cccc(-n3ncc(C(=O)O)c3C3CC3)c2)c1F (stereo not given) | – | 2.5 | 1.1 | inhibition (Keap1/Nrf2 [2]): 60%; inhibition (Keap1/Nrf2 [8]): 72%
15 | O=C(O)c1cnn(-c2ccccc2)c1C(F)(F)F | < 3.52 | – | – | –

The next lines start with results.

Row | pIC50 (Keap1/Nrf2 [1]) | chromatographic logD [3] | Papp [4] [×10⁻⁶ cm/s] | Structure (SMILES) | further results
16 | 4.35 | – | – | O=C(O)c1cnn(-c2cccc(-c3cccc(CNS(=O)(=O)c4ccccc4)c3)c2)c1C(F)(F)F | –
17 | 6.66 | 3.9 | 13 | CCCC1CCCCN1C(=O)c1cccc(-c2cccc(-n3ncc(C(=O)O)c3C3CC3c3cccnc3)c2)c1 (mixture of isomers) | –
18 | 5.00 | – | – | CN(C)C(=O)c1cccc(-c2cccc(-n3ncc(C(=O)O)c3C(C)(C)C)n2)c1 | –
19 | – | 3.1 | 4 | CCCC1CCCCN1C(=O)c1cccc(-c2cccc(-n3ncc(C(=O)O)c3C3CC3c3ccccn3)c2)c1 (mixture of isomers) | inhibition (Keap1/Nrf2 [2]): 42%
20 | 5.43 | – | – | CN(C)C(=O)c1cncc(-c2cccc(-n3ncc(C(=O)O)c3C(F)(F)F)c2)c1 | –
21 | 6.32 | – | – | CN(C)C(=O)c1cccc(-c2cccc(-n3ncc(C(=O)O)c3C(F)(F)F)c2)c1 | –
22 | – | 3 | 1.7 | CCC[C@@H]1CCCCN1C(=O)c1cccc(-c2cccc(-n3ncc(C(=O)O)c3[C@@H]3C[C@H]3c3cn(C)nn3)c2)c1 | IC50 (Keap1/Nrf2 [6]): 0.56 µM
23 | – | 2.9 | 3.7 | CCCC1CCCCN1C(=O)c1cccc(-c2cccc(-n3ncc(C(=O)O)c3C3CC3c3cn(C)nn3)c2)c1 (mixture of isomers) | inhibition (Keap1/Nrf2 [5]): 84%
24 | 7.39 | 0.8 | < 0.3 | CN(C)C(=O)c1cccc(-c2cccc(-n3ncc(C(=O)O)c3C3CC3c3cn(C)nn3)c2)c1 (racemic) | inhibition (Keap1/Nrf2 [2]): 53%; IC50 (Keap1/Nrf2 [1]): < 1 µM
25 | 6.43 | 1.4 | < 0.3 | CN(C)C(=O)c1cccc(-c2cccc(-n3ncc(C(=O)O)c3C3CC3)c2)c1 | IC50 (Keap1/Nrf2 [1]): < 1 µM
26 | 6.00 | – | – | CN(C)C(=O)c1cccc(-c2cccc(-n3ncc(C(=O)O)c3C3CCCC3)c2)c1 | –
27 | – | 2.9 | 1.7 | CCCC1CCCCN1C(=O)c1cccc(-c2cccc(-n3ncc(C(=O)O)c3C3CC3c3cccnn3)c2)c1 (mixture of isomers) | inhibition (Keap1/Nrf2 [5]): 50%
28 | – | 2.2 | 0.3 | CN(CC1CC1)C(=O)c1cccc(-c2cccc(-n3ncc(C(=O)O)c3C3CC3)c2)c1F | inhibition (Keap1/Nrf2 [7]): 50%; IC50 (Keap1/Nrf2 [1]): < 1 µM
29 | 5.74 | – | – | CN(C)C(=O)c1cccc(-c2cccc(-n3ncc(C(=O)O)c3C3CCCCC3)c2)c1 | –
30 | 6.00 | – | – | CN(C)C(=O)c1cccc(-c2cccc(-n3ncc(C(=O)O)c3C(F)(F)F)n2)c1 | –
31 | – | 3 | 1.6 | CCC[C@@H]1CCCCN1C(=O)c1cccc(-c2cccc(-n3ncc(C(=O)O)c3[C@H]3C[C@@H]3c3cn(C)nn3)c2)c1 | inhibition (Keap1/Nrf2 [5]): 98%
32 | 5.12 | – | – | CN(C)C(=O)c1ccnc(-c2cccc(-n3ncc(C(=O)O)c3C(F)(F)F)c2)c1 | –
33 | 5.70 | – | – | CN(C)C(=O)c1cccc(-c2cccc(-n3ncc(C(=O)O)c3-c3cccnc3)c2)c1 | –
34 | 5.46 | – | – | CC(=O)N1CCC(c2c(C(=O)O)cnn2-c2cccc(-c3cccc(C(=O)N(C)C)c3)c2)CC1 | –
35 | < 5.00 | 1.3 | < 0.3 | CN(C)C(=O)c1cccc(-c2cccc(-n3ncc(C(=O)O)c3C3CC3)c2)c1F | IC50 (Keap1/Nrf2 [1]): < 1 µM
